Test results from patent US4593090A, “Novel nitrosourea compounds, method for preparing same, and pharmaceutical composition containing same” (Gogo Kimura, priority 1981, dated 1986).
Where two headings read alike, the source gives them in different places.

Tests used:
Leukemia L1210 [1] = assay: Activity against Leukemia L1210, intraperitoneal, increase in life span of mice; assay type: in vivo, female mice (BDF1 family); settings: for ED (maximum ILS) / ED30: Mus musculus, L1210, ip, ip once a day for 5 successive days; for ED (maximum ILS): daily dosage giving maximum increase of life span, read-out: O.D. (optimum dosage); for ED30: daily dosage increasing average survival days by 30%, read-out: ILS30; for Survivors after 60 days / Max. ILS % / Therapeutic ratio TR: ip; for Survivors after 60 days: 6-membered group; for Max. ILS %: 60-day observation, versus control; for Therapeutic ratio TR: O.D./ILS30
Procedure, shortened: (§1)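 Dosing started 24 h after ip implantation of 1×10^5 L1210 cells into groups of 6 female BDF1 mice, by ip or oral route daily for 5 consecutive days. Survival was followed for 60 days; increase in life span was scored against untreated mice, with therapeutic ratio from optimum dose over ILS30 dose.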

Leukemia L1210 [2] = assay: Activity against Leukemia L1210, oral, increase in life span of mice; assay type: in vivo, female mice (BDF1 family); settings: for ED (maximum ILS) / ED30: Mus musculus, L1210, oral once a day for 5 successive days; for ED (maximum ILS): daily dosage giving maximum increase of life span, read-out: O.D. (optimum dosage); for ED30: daily dosage increasing average survival days by 30%, read-out: ILS30; for Survivors after 60 days / Max. ILS % / Therapeutic ratio TR: oral; for Survivors after 60 days: 6-membered group; for Max. ILS %: 60-day observation, versus control; for Therapeutic ratio TR: O.D./ILS30
Procedure, shortened: as §1

Ehrlich acites carcinoma = assay: Growth-inhibiting effect against Ehrlich acites carcinoma; assay type: in vivo, male mice; settings: 5 days; for response vs control in vivo at 25 mg/kg / response vs control in vivo at 100 mg/kg / response vs control in vivo at 3.2 mg/kg / response vs control in vivo at 6.3 mg/kg / response vs control in vivo at 12.5 mg/kg: Mus musculus, Ehrlich, 120 h; for response vs control in vivo at 25 mg/kg: 25 mg/kg/day ip; for response vs control in vivo at 100 mg/kg: 100 mg/kg/day ip; for response vs control in vivo at 3.2 mg/kg: 3.2 mg/kg/day ip; for response vs control in vivo at 6.3 mg/kg: 6.3 mg/kg/day ip
Procedure, shortened: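 Activity graded from T/C% of total packed ascites cell volume on day 7 (treated vs untreated): - 100-66, + 65-41, ++ 40-11, +++ 10-0. Groups of 6 male mice bore 1×10^7 i.p.-implanted cells and received compound (1% Nikkol HCO-60) i.p. daily for 5 days from 24 hrs after implantation.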

[3] = Acute toxicity (LD50, Behrens-Karber method); assay type: in vivo, ICR mice; settings: mouse, in vivo, ip, mortality during 30 days
Protocol: Test compounds, dissolved or suspended in 0.5% aqueous CMC, were each intraperitoneally administered to ICR mice in a dose of 0.1 ml per 10 g body weight. LD50 (mg/kg) value of each test compound was calculated from the mortality of mice during 30 days by the Behrens-Karber method.

[4] = Diuretic activity, acute sodium loaded mouse screening test; assay type: in vivo, male mice; settings: 50 mg/kg oral in 1% saline
Protocol: The diuretic activity of the compounds of this invention was assayed by the diuresis screening test referred to as "acute sodium loaded mouse". This test was carried out by the following method.
The acute sodium loaded mouse screening test was carried out by using a 10-membered group of male mice (each weighing 18 to 24 g). Test compounds were incorporated in 1% saline (NaCl) solution and orally administered in a volume of 10 ml/kg. The mice were placed in metabolic cages. Each treated group consisted of 10-members. Five members were placed in one cage. Tests were conducted by oral administrations of (A) 1% saline (NaCl) solution to the control group and (B) 1% saline (NaCl) solution containing a test compound according to this invention.
The determination was carried out for sodium, potassium, and chlorine in each pooled urine sample. The determination of sodium and potassium was carried out by flame photometer. Chlorine was determined by chloride analysis apparatus. The analytical values of sodium, potassium, and chlorine were shown with an average mg equivalent (m Eq)/Kg/5 hours, and the diuretic activity was shown with an average urine volume (ml)/Kg/5 hours.

[5] = 12.5 mg/kg/day ip, read-out: T/C %

| SMILES | ED (maximum ILS) (Leukemia L1210 [1]) [mg/kg] | ED30 (Leukemia L1210 [1]) [mg/kg] | Survivors after 60 days (Leukemia L1210 [1]) | Max. ILS % (Leukemia L1210 [1]) [%] | Therapeutic ratio TR (Leukemia L1210 [1]) | ED (maximum ILS) (Leukemia L1210 [2]) [mg/kg] | ED30 (Leukemia L1210 [2]) [mg/kg] | Survivors after 60 days (Leukemia L1210 [2]) | Max. ILS % (Leukemia L1210 [2]) [%] | Therapeutic ratio TR (Leukemia L1210 [2]) | response vs control in vivo at 25 mg/kg (Ehrlich acites carcinoma; read-out: Activity) [%] | response vs control in vivo at 25 mg/kg (Ehrlich acites carcinoma; read-out: T/C %) [%] | response vs control in vivo at 100 mg/kg (Ehrlich acites carcinoma; read-out: Activity) [%] | response vs control in vivo at 100 mg/kg (Ehrlich acites carcinoma; read-out: T/C %) [%] | LD50 at 720 h [3] [mg/kg] | also measured |
| --- | --- | --- | --- | --- | --- | --- | --- | --- | --- | --- | --- | --- | --- | --- | --- | --- |
| COCCCN(C[C@H]1O[C@H](OCC(C)C)[C@H](O)[C@H]1O)C(=O)N(CCCl)N=O [Compound 164, 3-(3-methoxy-n-propyl)-3-(isobutyl α-D-xylofuranose-5-yl)-1-(2-chloroethyl)-1-nitrosourea] | 160 | 2.72 | 6/6 | > 700 | 58.8 | 185 | 14.5 | 5/6 | > 620 | 12.8 | 0 to 10 | 0 | 0 to 10 | 0 | 520 | – |
| CC(C)CO[C@@H]1O[C@H](CN(C(=O)N(CCCl)N=O)C(C)(C)C)[C@@H](O)[C@H](O)[C@H]1O [Compound 175, 3-tert-butyl-3-(isobutyl β-D-glucopyranose-6-yl)-1-(2-chloroethyl)-1-nitrosourea] | 170 | 3.33 | 6/6 | > 700 | 51.0 | – | – | – | – | – | – | – | – | – | 550 | Urine volume [4]: 9.4 ml/kg/5 hrs.; Cl^- ([4]; urine): 0.8 mEq/kg/5 hrs.; K^+ ([4]; urine): 0.9 mEq/kg/5 hrs.; Na^+ ([4]; urine): 0.6 mEq/kg/5 hrs. |
| CO[C@H]1O[C@H](CNC(=O)N(CCCl)N=O)[C@@H](O)[C@H](O)[C@H]1O [Compound 6MCαG, 3-(methyl α-D-glucopyranose-6-yl)-1-(2-chloroethyl)-1-nitrosourea, reference compound] | 13.5 | 0.53 | 6/6 | > 700 | 25.5 | 16.8 | 2.45 | 6/6 | > 700 | 6.86 | – | – | – | – | 40 | Activity (toxicity in words) (Ehrlich acites carcinoma; 12.5 mg/kg/day ip): Toxic (2/6); response vs control in vivo at 3.2 mg/kg (Ehrlich acites carcinoma; read-out: Activity): 0 to 10%; response vs control in vivo at 3.2 mg/kg (Ehrlich acites carcinoma; read-out: T/C %): 0%; response vs control in vivo at 6.3 mg/kg (Ehrlich acites carcinoma; read-out: Activity): 0 to 10%; response vs control in vivo at 6.3 mg/kg (Ehrlich acites carcinoma; read-out: T/C %): 0%; response vs control in vivo at 12.5 mg/kg (Ehrlich acites carcinoma; [5]): 0% |
| CCOCCN(C(=O)N(CCCl)N=O)[C@@H]1[C@@H](O)[C@@H](OC2CCCCC2)OC[C@H]1O [Compound 149, 3-(2-ethoxyethyl)-3-(cyclohexyl α-D-xylopyranose-3-yl)-1-(2-chloroethyl)-1-nitrosourea] | 170 | 2.9 | 6/6 | > 700 | 58.6 | 210 | 12.8 | 4/6 | > 440 | 16.4 | 0 to 10 | 0 | 0 to 10 | 0 | 540 | – |
| COCC(C)N(C[C@H]1O[C@H](OCC(C)C)[C@H](O)[C@@H](O)[C@@H]1O)C(=O)N(CCCl)N=O (stereo partly drawn) [Compound 16, 3-(1-methyl-2-methoxyethyl)-3-(isobutyl α-D-glucopyranose-6-yl)-1-(2-chloroethyl)-1-nitrosourea] | 190 | 2.9 | 6/6 | > 700 | 65.6 | 240 | 8.82 | 6/6 | > 700 | 27.2 | 0 to 10 | 0 | 0 to 10 | 0 | 580 | – |
| COCCN(C(=O)N(CCCl)N=O)C1C(OC(C)COC)OC(CO)C(O)C1O [Compound 71, 3-(2-methoxyethyl)-3-(1-methyl-2-methoxyethyl α-D-glucopyranose-2-yl)-1-(2-chloroethyl)-1-nitrosourea] | 180 | 4.17 | 6/6 | > 700 | 43.2 | 220 | 13.1 | 4/6 | > 440 | 16.8 | 0 to 10 | 0 | 0 to 10 | 0 | 560 | – |
| CC(C)CO[C@H]1O[C@H](CN(CC2CCCO2)C(=O)N(CCCl)N=O)[C@@H](O)[C@@H](O)[C@@H]1O (stereo partly drawn) [Compound 140, 3-tetrahydrofurfuryl-3-(isobutyl α-D-altropyranose-6-yl)-1-(2-chloroethyl)-1-nitrosourea] | 180 | 2.8 | 6/6 | > 700 | 64.3 | 220 | 9.69 | 5/6 | > 620 | 22.7 | 0 to 10 | 0 | 0 to 10 | 0 | 540 | – |
| CCCCO[C@H]1O[C@H](CN(CC(C)OC)C(=O)N(CCCl)N=O)[C@@H](O)[C@H](O)[C@H]1O (stereo partly drawn) [Compound 11, 3-(2-methoxy-n-propyl)-3-(n-butyl α-D-glucopyranose-6-yl)-1-(2-chloroethyl)-1-nitrosourea] | 170 | 2.9 | 6/6 | > 700 | 58.6 | 220 | 9.57 | 6/6 | > 700 | 23.0 | 0 to 10 | 0 | 0 to 10 | 0 | 495 | – |
| O=NN(CCCl)C(=O)N[C@@H]1O[C@H](CO)[C@@H](O)[C@H](O)[C@H]1O [GANU, 3-(β-D-glucopyranosyl)-1-(2-chloroethyl)-1-nitrosourea, reference compound] | 6.2 | 0.45 | 4/6 | > 425 | 13.8 | 6.35 | 2.5 | 0/6 | 94 | 2.54 | – | – | – | – | 35 | Activity (toxicity in words) (Ehrlich acites carcinoma; 25.0 mg/kg/day ip): Toxic (6/6); response vs control in vivo at 3.2 mg/kg (Ehrlich acites carcinoma; read-out: Activity): 0 to 10%; response vs control in vivo at 3.2 mg/kg (Ehrlich acites carcinoma; read-out: T/C %): 0%; response vs control in vivo at 12.5 mg/kg (Ehrlich acites carcinoma; 12.5 mg/kg/day ip, read-out: Activity): 0 to 10%; response vs control in vivo at 12.5 mg/kg (Ehrlich acites carcinoma; [5]): 0% |
